Experimental data: patent publication US20210290816A1, “LIQUID EMBOLICS” (MicroVention, Inc., priority 2020, published 2021)
Structures can show the parent of a compound that is named as a salt.

Columns and labels:
[1] = In vitro elution of carmustine from PHIL® solution; assay type: physicochemical; conditions: 50 mg in 1 mL 25 wt % PHIL®, 99 mL distilled water, room temperature
Method: (§1) Fifty mg of carmustine are dissolved in 1 mL of 25 wt % PHIL® solution, which includes triiodophenol-(lactide-co-glycolide) acrylate and hydroxyethyl methacrylate in dimethyl sulfoxide. The 1 mL of 25 wt % PHIL®/carmustine solution is precipitated in 99 mL of a dissolution medium, including distilled water at room temperature. At 2, 5, 9, 14, 20, 27, 35, 44, 54, 65 and 90 minutes, 1 mL of the supernatant is pipetted out and placed in a HPLC vial.
The concentration of carmustine in each sample is determined using an Agilent 1100 HPLC system. The chromatographic analysis is performed with a Primesep 100 column (3.2 mm×50 mm, 3 μm). The mobile phase includes 10% methanol and 90% 10 mM potassium phosphate buffer solution pH 3 with 5% acetonitrile and 7.2 mM triethylamine delivered at 1 mL/min. The injection volume is 3 μL and the wavelength of the ultraviolet detector is 230 nm. The calibration curve is prepared from 10 to 1000 ppm of carmustine. The amount of carmustine released and relative percentage are calculated from the concentration data.

[2] = 50 mg in 1 mL 25 wt % PHIL®, 99 mL distilled water, room temperature
Method: as §1, with “cyclophosphamide” for “carmustine”, “PHIL®/cyclophosphamide” for “PHIL®/carmustine”
The concentration of cyclophosphamide in each sample is determined using an Agilent 1100 HPLC system. The chromatographic analysis is performed with a Primesep 100 column (3.2 mm×50 mm, 3 μm). The mobile phase includes 5% acetonitrile and 95% HPLC water with 5% acetonitrile delivered at 1 mL/min. The injection volume is 25 μL and the wavelength of the ultraviolet detector is 197 nm. The calibration curve is prepared from 10 to 1000 ppm of cyclophosphamide. The amount of cyclophosphamide released and relative percentage are calculated from the concentration data.

[3] = In vitro elution of doxorubicin from PHIL® solution; assay type: physicochemical; conditions: 50 mg doxorubicin hydrochloride in 1 mL 25 wt % PHIL®, 99 mL 10 mM potassium phosphate buffer pH 4.0, room temperature
Method: as §1, with “doxorubicin hydrochloride” for “carmustine”, “PHIL®/doxorubicin” for “PHIL®/carmustine”, “10 mM potassium phosphate buffer solution pH 4.0” for “distilled water”
The concentration of doxorubicin in each sample is determined using an Agilent 1100 HPLC system. The chromatographic analysis is performed with an Agilent Extended-C18 column (4.6 mm×50 mm, 3.5 μm). The mobile phase includes 18% acetonitrile and 82% 10 mM potassium phosphate buffer solution pH 3 with 5% acetonitrile and 7.2 mM triethylamine delivered at 1 mL/min. The injection volume is 3 μL and the wavelength of the ultraviolet detector is 234 nm. The calibration curve is prepared from 10 to 1000 ppm of doxorubicin. The amount of doxorubicin released and relative percentage are calculated from the concentration data.

[4] = In vitro elution of gemcitabine from PHIL® solution; assay type: physicochemical; conditions: 50 mg in 1 mL 25 wt % PHIL®, 99 mL PBS, room temperature
Method: The chromatographic analysis is performed with an Agilent Extended-C18 column (4.6 mm×50 mm, 3.5 μm). […] The injection volume is 3 μL and the wavelength of the ultraviolet detector is 275 nm.

[5] = In vitro elution of irinotecan from PHIL® solution; assay type: physicochemical; conditions: 50 mg irinotecan hydrochloride in 1 mL 25 wt % PHIL®, 99 mL 10 mM potassium phosphate buffer pH 4.0, room temperature
Method: (§2) The chromatographic analysis is performed with an Agilent Extended-C18 column (4.6 mm×50 mm, 3.5 μm). The mobile phase includes of 18% acetonitrile and 82% 10 mM potassium phosphate buffer solution pH 3 with 5% acetonitrile and 7.2 mM triethylamine delivered at 1 mL/min. The injection volume is 2 μL and the wavelength of the ultraviolet detector is 223 nm.

Canine Liver = experiment: In vivo evaluation of PHIL LV liquid embolic with irinotecan in canine liver
Method: A canine is anesthetized and a 6 Fr sheath is inserted into the femoral artery via a cutdown. A 6 Fr Glidecath is advanced retrograde into the celiac trunk and further into the hepatic artery. Following angiography, a Scepter balloon (4 mm×10 mm) is advanced through the Glidecath and into a branch of the hepatic artery. […] Blood is collected at 5, 15, 30, 60, and 120 minutes post-embolization for irinotecan quantification.

[6] = In vitro elution of oxaliplatin from PHIL® solution (ICP-MS platinum); assay type: physicochemical; conditions: 50 mg in 1 mL 25 wt % PHIL®, 50 mL PBS replaced at each time point, room temperature
Method: The remaining supernatant is poured out and the precipitates are mixed with a fresh 50 mL of the dissolution medium at room temperature.
Samples are prepared for ICP-MS analysis to measure the platinum concentration in the supernatant by mixing a sample portion (1 mL) with 4 mL of 2% nitric acid (5-fold dilution) or a sample portion (2.5 mL) with 0.05 mL of 2% nitric acid (undiluted). The calibration curve is prepared from 0.5 to 100 ppm of platinum.

[7] = In vitro elution of paclitaxel from PHIL® solution; assay type: physicochemical; conditions: 50 mg in 1 mL 25 wt % PHIL®, 199 mL 45:55 acetonitrile/10 mM potassium phosphate buffer pH 4.5, room temperature
Method: Fifty mg of paclitaxel are dissolved in 1 mL of 25 wt % PHIL® solution, which includes triiodophenol-(lactide-co-glycolide) acrylate and hydroxyethyl methacrylate in dimethyl sulfoxide. The 1 mL of 25 wt % PHIL®/Paclitaxel solution is precipitated in 199 mL of a dissolution medium, consisting of 45:55 acetonitrile/10 mM potassium phosphate buffer solution pH 4.5 at room temperature. At 2, 5, 9, 14, 20, 27, 35, 44, 54, 65 and 90 minutes, 1 mL of the supernatant is pipetted out and placed in a HPLC vial. The concentration of paclitaxel in each sample is determined using an Agilent 1100 HPLC system. The chromatographic analysis is performed with an Agilent Extended-C18 column (4.6 mm×50 mm, 3.5 μm). The mobile phase includes 50% acetonitrile and 50% 5% acetonitrile in water delivered at 1 mL/min. The injection volume is 10 μL and the wavelength of the ultraviolet detector was 227 nm. The calibration curve is prepared from 5 to 500 ppm of paclitaxel. The amount of paclitaxel released and relative percentage are calculated from the concentration data.

[8] = In vitro elution of sorafenib from PHIL® solution; assay type: physicochemical; conditions: 50 mg in 1 mL 25 wt % PHIL®, 999 mL 70:30 acetonitrile/10 mM potassium phosphate buffer pH 4.3, room temperature
Method: The 1 mL of 25 wt % PHIL®/sorafenib solution is precipitated in 999 mL of a dissolution medium, including 70:30 acetonitrile/10 mM potassium phosphate buffer solution pH 4.3 at room temperature.
as §2, with “includes 50%” for “includes of 18%”, “and 50%” for “and 82%”, “is 3” for “is 2”, “is 263” for “is 223”, “nm. The calibration curve is prepared from 1 to 100 ppm of sorafenib.” for “nm.”

[9] = In vitro elution of sunitinib from PHIL® solution; assay type: physicochemical; conditions: 50 mg sunitinib malate in 1 mL 25 wt % PHIL®, 999 mL phosphate buffered saline
Method: The 1 mL of 25 wt % PHIL®/sunitinib solution is precipitated in 999 mL of a dissolution medium, including phosphate buffered saline.
as §2, with “includes 22%” for “includes of 18%”, “and 78%” for “and 82%”, “is 3” for “is 2”, “is 429” for “is 223”, “nm. The calibration curve is prepared from 1 to 100 ppm of sunitinib.” for “nm.”

## O=NN(CCCl)C(=O)NCCCl [carmustine]
[1]; first 90 minutes
  total amount of carmustine eluted: 26 mg per 1 mL of PHIL®
[1]; within the first 35 minutes
  sharp increase of carmustine eluted: 21 mg

## O=P1(N(CCCl)CCCl)NCCCO1 (centres unmarked) [cyclophosphamide]
[2]; first 90 minutes
  total amount of cyclophosphamide eluted: 38 mg per 1 mL of PHIL®
[2]; within the first 35 minutes
  sharp increase of cyclophosphamide eluted: 35 mg

## COc1cccc2c1C(=O)c1c(O)c3c(c(O)c1C2=O)C[C@@](O)(C(=O)CO)C[C@@H]3O[C@H]1C[C@H](N)[C@H](O)[C@H](C)O1 [doxorubicin, doxorubicin hydrochloride]
[3]; first 90 minutes
  total amount of doxorubicin eluted: 38 mg per 1 mL of PHIL®
[3]; within the first 14 minutes
  sharp increase of doxorubicin eluted: 29 mg

## Nc1ccn([C@@H]2O[C@H](CO)[C@@H](O)C2(F)F)c(=O)n1 [gemcitabine]
[4]; first 90 minutes
  total amount of gemcitabine eluted: 43 mg per 1 mL of PHIL®
[4]; within the first 9 minutes
  sharp increase of gemcitabine eluted: 34 mg

## CCc1c2c(nc3ccc(OC(=O)N4CCC(N5CCCCC5)CC4)cc13)-c1cc3c(c(=O)n1C2)COC(=O)[C@]3(O)CC [irinotecan, irinotecan hydrochloride]
[5]; first 90 minutes
  total amount of irinotecan eluted: 31 mg per 1 mL of PHIL®
[5]; within the first 9 minutes
  sharp increase of irinotecan eluted: 24 mg
Canine Liver; 1.5 mL PHIL LV loaded with 75 mg irinotecan into hepatic artery branch, blood 5-120 minutes post-embolization
  irinotecan in the blood, rapid rise to: about 300 ppb
Canine Liver; 1.5 mL PHIL LV loaded with 75 mg irinotecan, blood collected to 120 minutes
  tapering of irinotecan in the blood back to baseline: beyond the timescale of the experiment

## O=C1[O][Pt]2([NH][C@@H]3CCCC[C@H]3[NH]2)[O]C1=O [oxaliplatin]
[6]; first 80 minutes
  total amount of oxaliplatin eluted: 41 mg per 1 mL of PHIL®
[6]; within the first 15 minutes
  sharp increase of oxaliplatin eluted: 37 mg

## CC(=O)O[C@H]1C(=O)[C@@]2(C)[C@H]([C@H](OC(=O)c3ccccc3)[C@]3(O)C[C@H](OC(=O)[C@H](O)[C@@H](NC(=O)c4ccccc4)c4ccccc4)C(C)=C1C3(C)C)[C@]1(OC(C)=O)CO[C@@H]1C[C@@H]2O [paclitaxel]
[7]; first 90 minutes
  total amount of paclitaxel eluted: 38 mg per 1 mL of PHIL®
[7]; within the first 9 minutes
  sharp increase of paclitaxel eluted: 30 mg

## CNC(=O)c1cc(Oc2ccc(NC(=O)Nc3ccc(Cl)c(C(F)(F)F)c3)cc2)ccn1 [sorafenib]
[8]; first 90 minutes
  total amount of sorafenib eluted: 42 mg per 1 mL of PHIL®
[8]; within the first 2 minutes
  sharp increase of sorafenib eluted: 38 mg

## CCN(CC)CCNC(=O)c1c(C)[nH]c(/C=C2\C(=O)Nc3ccc(F)cc32)c1C [sunitinib, sunitinib malate]
[9]; first 65 minutes
  total amount of sunitinib eluted: 16 mg per 1 mL of PHIL®
[9]; within the first 2 minutes
  sharp increase of sunitinib eluted: 11 mg
